Data: patent US9926315B2, “Triazolopyridine compounds and methods for the treatment of cystic fibrosis” (Flatley Discovery Lab, LLC, priority 2014, dated 2018)

Target: T1, human ΔF508-CFTR (Homo sapiens, UniProt P13569, DEL508-508)
T1 construct: expressed in transfected cells
Assay: CFTR-YFP High Throughput Assay (HTS YFP flux assay, corrector / potentiator protocols)
Type: cell-based
Conditions: FRT cells stably expressing human ΔF508-CFTR and YFP-H148Q/I152L
Description: Assays for Detecting and Measuring the Effect of Compounds on dF508-CFTR Channels CFRT-YFP High Throughput Assay: Corrector Assay:
The following protocol is designed to selectively screen small molecule compounds for F508del CFTR corrector activities in the HTS YFP flux assay. In this protocol, the cells are incubated with testing compounds for 24 hours, washed with PBS, stimulated with forskolin and a standard potentiator, and read on a 384-well HTS plate reader, such as the Hamamatsu FDDD-6000.
(§1) YFP fluorescence intensity is acquired at high speed before and after iodide buffer is injected to the assay cells. Iodide enters the cells via active CFTR channels in the plasma membrane, and quenches the YFP fluorescence. The rate of fluorescence quenching is proportionally related to the total CFTR activities in the cell membrane. dF508-CFTR corrector accelerates YFP quenching by increasing the number of CFTR molecules in the testing cell plasma membrane.
This method was initially developed for bench top plate readers (Galietta, 2001), and was adapted to the HTS format (Sui, 2010).
Fisher Rat Thyroid (FRT) cells stably expressing both human ΔF508-CFTR and a halide-sensitive yellow fluorescent protein (YFP-H148Q/I152L 25, 22) (Galietta, 2001) were cultured on plastic surface in Coon's modified Ham's F12 medium supplemented with FBS 10%, L-glutamine 2 mM, penicillin 100 U/mL, and streptomycin 100 μg/mL. G418 (0.75-1.0 mg/mL) and zeocin (3.2 μg/mL) were used for selection of FRT cells expressing ΔF508-CFTR and YFP. For primary screening, FRT cells were plated into 384-well black wall, transparent bottom microtiter plates (Costar; Corning Inc.) at a cell density of 20, 000-40, 000 per well. Test compound was applied to the cells at varying concentrations ranging from 2 nM-[…] in either a 2-fold or 3-fold dilution series. Cells were incubated in a cell culture incubator at 37° C. with 5% CO2 for 24-26 h. Assay plates were washed with DPBS media (Thermo, cat#SH30028.02) to remove unbound cells and compound. Stimulation media (25 μL) containing 20 μM Forskolin & 30 μM P3 [6-(Ethyl-phenyl-sulfonyl)-4-oxo-1, 4-dihydro-quinoline-3-carboxylic acid 2-methoxy-benzylamide] in Hams F-12 coon's modified media was added to the plate wells and incubated at room temperature for 60-120 min. 25 μL of HEPES-PBS-I buffer (10 mM HEPES, 1 mM MgCl2, 3 mM KCl, 1 mM CaCl2, 150 mM NaI) was then added and fluorescence quench curves (Excitation 500 nm/Emission 540 nm; exposure 136 ms) were immediately recorded on an FDSS-6000 plate reader (Hamamatsu). Quench rates were derived from least squares fitting of the data (Sui, 2010).
The following protocol is designed to selectively screen small molecule compounds for F508del CFTR potentiator activities in the HTS YFP flux assay. In this protocol, the cells are incubated at 27° C. for 24 hours with homogeneously boosted dF508-CFTR expression in the cell membrane by the low temperature, washed with PBS, stimulated with forskolin, and read on a 384-well HTS plate reader, such as the Hamamatsu […].
as §1, with “dF508del-CFTR potentiators accelerate” for “dF508-CFTR corrector accelerates”, “increasing” for “increasing the number of”, “activities” for “molecules”
Fisher Rat Thyroid (FRT) cells stably expressing both human ΔF508-CFTR and a halide-sensitive yellow fluorescent protein (YFP-H148Q/I152L 25, 22) (Galietta, 2001) were cultured on plastic surface in Coon's modified Ham's F12 medium supplemented with FBS 10%, L-glutamine 2 mM, penicillin 100 U/mL, and streptomycin 100 μg/mL. G418 (0.75-1.0 mg/mL) and zeocin (3.2 μg/mL) were used for selection of FRT cells expressing ΔF508-CFTR and YFP. […]

T1 sequence (P13569 with tags, fused parts or gaps DEL508-508): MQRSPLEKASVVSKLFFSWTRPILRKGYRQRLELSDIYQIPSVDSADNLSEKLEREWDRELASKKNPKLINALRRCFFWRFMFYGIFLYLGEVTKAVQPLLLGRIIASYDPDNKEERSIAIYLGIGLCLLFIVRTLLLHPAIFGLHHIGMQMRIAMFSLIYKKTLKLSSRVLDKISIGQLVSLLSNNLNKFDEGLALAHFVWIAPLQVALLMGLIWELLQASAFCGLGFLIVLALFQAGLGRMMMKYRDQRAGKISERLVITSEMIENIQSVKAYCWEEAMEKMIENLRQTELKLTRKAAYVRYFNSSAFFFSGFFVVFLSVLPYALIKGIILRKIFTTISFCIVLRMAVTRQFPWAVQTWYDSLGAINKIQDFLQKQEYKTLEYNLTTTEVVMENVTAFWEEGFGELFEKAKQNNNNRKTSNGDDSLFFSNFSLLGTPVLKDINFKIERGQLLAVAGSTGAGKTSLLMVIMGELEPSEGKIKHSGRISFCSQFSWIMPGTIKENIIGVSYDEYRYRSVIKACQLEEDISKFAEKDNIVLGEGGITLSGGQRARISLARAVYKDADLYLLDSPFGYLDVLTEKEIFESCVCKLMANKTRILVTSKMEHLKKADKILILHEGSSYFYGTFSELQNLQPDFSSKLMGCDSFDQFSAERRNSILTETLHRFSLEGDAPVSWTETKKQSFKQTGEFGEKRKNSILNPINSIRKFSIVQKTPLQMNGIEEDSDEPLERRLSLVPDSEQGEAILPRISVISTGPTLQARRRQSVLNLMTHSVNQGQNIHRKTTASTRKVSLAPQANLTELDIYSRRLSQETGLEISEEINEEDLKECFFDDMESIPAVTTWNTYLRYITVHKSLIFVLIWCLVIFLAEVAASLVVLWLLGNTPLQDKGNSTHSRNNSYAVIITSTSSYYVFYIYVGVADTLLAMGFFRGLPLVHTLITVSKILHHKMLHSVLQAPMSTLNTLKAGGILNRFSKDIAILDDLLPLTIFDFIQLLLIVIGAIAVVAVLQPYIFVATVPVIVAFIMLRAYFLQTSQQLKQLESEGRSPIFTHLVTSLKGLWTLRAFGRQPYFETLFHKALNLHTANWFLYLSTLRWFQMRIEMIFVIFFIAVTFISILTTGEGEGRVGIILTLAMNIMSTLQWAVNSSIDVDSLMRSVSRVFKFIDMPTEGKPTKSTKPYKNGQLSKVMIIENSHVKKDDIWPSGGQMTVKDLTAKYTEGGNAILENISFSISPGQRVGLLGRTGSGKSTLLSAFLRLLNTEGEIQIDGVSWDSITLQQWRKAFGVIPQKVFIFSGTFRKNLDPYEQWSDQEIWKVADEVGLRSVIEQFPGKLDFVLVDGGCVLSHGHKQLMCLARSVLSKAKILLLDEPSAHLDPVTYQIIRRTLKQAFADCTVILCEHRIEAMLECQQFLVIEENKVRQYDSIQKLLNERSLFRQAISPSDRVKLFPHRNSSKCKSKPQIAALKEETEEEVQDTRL

- EC50: < 1000 nM
- Emax (normalized to positive control, read-out: Emax (% Efficacy, EMax normalized to the positive control)): > 80%
Compound: CCN(CC)S(=O)(=O)c1ccc2nnc(NCc3ccccc3)n2c1 [Example 1, 3-(Benzylamino)-N,N-diethyl-[1,2,4]triazolo[4,3-a]pyridine-6-sulfonamide]
